Read-outs that look alike come from different tables or passages of the source.
Target: T1, acetylcholine muscarinic M1 receptor (CHOnfat/hM1 cells) (Homo sapiens, UniProt P11229)
T1 construct: expressed in transfected cells; host or cells: CHOnfat (CHO cells; selected with Geneticin)
T1 sequence (P11229 1-460): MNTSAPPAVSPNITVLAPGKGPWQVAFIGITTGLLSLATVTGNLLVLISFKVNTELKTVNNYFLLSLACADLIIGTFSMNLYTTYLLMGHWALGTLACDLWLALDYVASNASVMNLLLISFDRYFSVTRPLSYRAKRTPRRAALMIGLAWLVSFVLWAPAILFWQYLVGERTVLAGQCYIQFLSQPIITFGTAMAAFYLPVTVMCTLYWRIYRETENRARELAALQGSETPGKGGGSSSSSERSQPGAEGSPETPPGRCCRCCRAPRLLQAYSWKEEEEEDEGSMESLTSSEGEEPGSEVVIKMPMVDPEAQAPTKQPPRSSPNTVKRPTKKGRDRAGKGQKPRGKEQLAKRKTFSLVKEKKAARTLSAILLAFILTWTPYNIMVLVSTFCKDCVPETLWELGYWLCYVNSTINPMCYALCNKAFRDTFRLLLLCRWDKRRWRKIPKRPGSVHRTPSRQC
Experiment: FLIPR intracellular calcium assay for M1 positive allosteric modulator activity (acetylcholine EC20)
Format: cell-based
Procedure: The assay studies the effect of one or several concentrations of test compounds on basal or acetylcholine-stimulated Ca^2+ levels using FLIPR.
Compounds are prepared and subjected to a preincubation period of 4 min. Thereafter, a single EC20 concentration of acetylcholine is added to each well (3 nM final). The intracellular Ca^2+ level of each sample is measured and compared to an acetylcholine control to determine any modulatory activity.
Cells: CHOnfat/hM1, hM2, hM3 or hM4 cells are plated 24 hr before the assay at a density of 18,000 cells/well (100 μL) in a 384 well plate. CHOnfat/hM1 and CHOnfat/hM3 Growth Medium: 90% DMEM (Hi Glucose); 10% HI FBS; 2 mM L-glutamine; 0.1 mM NEAA; Pen-Strep; and 1 mg/ml Geneticin, are added. For M2Gqi5CHOnfat and M4Gqi5CHOnfat cells, an additional 600 μg/ml hygromycin is added.
Equipment: 384 well plate, 120 μL addition plate; 96-well Whatman 2 ml Uniplate Incubator, 37° C., 5% CO2; Skatron EMBLA-384 Plate Washer; Multimek Pipetting System; Genesis Freedom 200 System; Mosquito System; Temo Nanoliter Pipetting System; and FLIPR^384 Fluorometric Imaging Plate Reader System are used.
Buffers. Assay Buffer: Hanks Balanced Salt Solution, with 20 mM Hepes, 2.5 mM Probenecid (Sigma P-8761) first dissolved in 1 N NaOH, 1% Bovine Serum Albumin (Sigma A-9647). Dye Loading Buffer: Assay Buffer plus 1% Fetal Bovine Serum and Fluo-4AM/Pluronic Acid Mixture. 2 mM Fluo-4AM ester stock in DMSO (Molecular Probes F-14202) Concentration of 2 μM in buffer for a final concentration of 1 μM in Assay. 20% Pluronic Acid Solution stock, with concentration of 0.04% in Buffer, 0.02% in Assay.
65 μL of 2 mM Fluo-4AM are mixed with 130 μL of 20% Pluronic Acid. The resulting solution and 650 μL FBS is added to the assay buffer for a total volume of 65 mL. Positive Controls: 4-Br-A23187: 10 mM in DMSO; final concentration 10 μM. Acetylcholine: 10 mM in water, working stock at both 20 μM and 30 μM in assay buffer, final concentration of 10 μM. This is used to check the maximum stimulation of the CHOK1/hM1 cells. 20 μM (2×) acetylcholine is added in the preincubation part of the assay, and the 30 μM (3×) stock is added in the second part. (EC20) Acetylcholine: 10 mM in water, working stock of 9 nM (3×), and final concentration in assay is 3 nM. This is used after the preincubation with test compounds. Addition of the EC20 Acetylcholine to each well with a test compound will ascertain any modulator activity. 24 wells contain 3 nM Acetylcholine alone as a control.
Screening Plate: Compounds are titrated in 96-well plates (columns 2-11), 100% DMSO, started at a concentration of 15 mM (150× stock concentration), and 3-fold serial dilutions using Genesis Freedom200 System. Four 96-well plates are combined into a 384-well plate using Mosquito Nanoliter Pipetting System by transferring 1 μl of serial diluted compounds to each well, and 1 mM acetylcholine (100× stock concentration) were added as a control. Using Temo, 49 μl assay buffer is added to each well of the 384-well plate right before assay.
In a 96-well Whatman 2 ml Uniplate, 9 nM Acetylcholine (3×) is pipetted into wells corresponding to the screening compounds, and into control wells. The 30 μM acetylcholine control (3×) is added into control wells, and the 3× agonist plate is transferred into a 384 well plate.
Cells are washed three times with 100 μL of buffer, leaving 30 μL of buffer in each well. Using Multimek, 30 μL of Dye Loading Buffer is added into each well and incubated at 37° C., 5% CO2 for up to one hr.
After 60 min, the cells are washed three times with 100 μL of buffer, leaving 30 μL of buffer in each well. The cell plate, screening plate, and agonist addition plates are placed on the platform in the FLIPR and the door closed. A signal test to check background fluorescence and basal fluorescence signal is performed. Laser intensity is adjusted if necessary. […]

[1] = CHOnfat/hM1 cells, 4 min preincubation, then EC20 acetylcholine (3 nM final), FLIPR Ca2+, read-out: IP Value (inflection point)

Compound	EC50 [1]	EC50
COC(=O)N1CCC(NC(=O)c2cc(CN3CCC(C#N)(c4ccccn4)CC3)c3ccccn3c2=O)CC1 [Example 20, Methyl 4-[({1-[(4-cyano-4-pyridin-2-ylpiperidin-1-yl)methyl]-4-oxo-4H-quinolizin-3-yl}carbonyl)amino]piperidine-1-carboxylate]	600 nM	
N#Cc1ccnc(C2(C#N)CCN(Cc3cc(C(=O)N[C@H]4CCCC[C@@H]4O)c(=O)n4ccccc34)CC2)c1 [Example 22, 1-{[4-Cyano-4-(4-cyanopyridin-2-yl)piperidin-1-yl]methyl}-N-[(1S,2S)-2-hydroxycyclohexyl]-4-oxo-4H-quinolizine-3-carboxamide]	280 nM	
N#CC1(c2cc(CF)ccn2)CCN(Cc2cc(C(=O)N[C@H]3CCCC[C@@H]3O)c(=O)n3ccccc23)CC1 [Example 23, 1-({4-Cyano-4-[4-(fluoromethyl)pyridine-2-yl]piperidin-1-yl}methyl)-N-[(1S,2S)-2-hydroxycyclohexyl]-4-oxo-4H-quinolizine-3-carboxamide]		34 nM
N#CC1(c2cc(C(F)F)ccn2)CCN(Cc2cc(C(=O)N[C@H]3CCCC[C@@H]3O)c(=O)n3ccccc23)CC1 [Example 24, 1-({4-Cyano-4-[4-(difluoromethyl)pyridin-2-yl]piperidin-1-yl}methyl)-N-[(1S,2S)-2-hydroxycyclohexyl]-4-oxo-4H-quinolizine-3-carboxamide]		25 nM
Cc1cccn2c(=O)c(C(=O)NC3CCOCC3)cc(CN3CCC(C#N)(c4ccccn4)CC3)c12 [Example 25, 1-[(4-Cyano-4-pyridin-2-ylpiperidin-1-yl)methyl]-9-methyl-4-oxo-N-(tetrahydro-2H-pyran-4-yl)-4H-quinolizine-3-carboxamide]	2100 nM	

— patent US8754220B2, “Quinolizidinone carboxamide M1 receptor positive allosteric modulators” (Merck Sharp & Dohme Corp., priority 2009, dated 2014)
